Columns and labels:
[1] = target: E. coli alkaline phosphatase, trypsin-modified (tm-AP) (Escherichia coli, UniProt P00634); settings: 2.6×10^-6 M enzyme, 0.5 M NaCl, 0.025 M Tris, pH 7.5
Experimental: (§1) Enzyme was incubated with EDTA; conditions- 2.6×10^-6 M enzyme, -0.015 M EDTA, 0.5 M NaCl, 5×10^-4 M Mg(II), 5×10^-5 M Zn(II), 5×10^-4 M spermidine, 0.025 M Tris, pH 7.5. Aliquots were withdrawn at the indicated time points and enzymatic activity in the standard phosphohydrolase assay (Appleburg, M. L. and J. E. Coleman J. Biol. Chem. 244: 308 (1969)) was determined. Data are shown as the per cent of the initial activity remaining at the times indicated. […] Enzyme was harvested and activity determined.
(§2) Following inactivation, samples of th enzymes were dialyzed against buffer solutions containing Zn(II) and Mg(II) ions (arrow in FIG. 14).

[2] = target: native bacterial alkaline phosphatase (BAP) (Escherichia coli, UniProt P00634); settings: 2.6×10^-6 M enzyme, 0.5 M NaCl, 0.025 M Tris, pH 7.5
native bacterial alkaline phosphatase (BAP), sequence (P00634 22-471): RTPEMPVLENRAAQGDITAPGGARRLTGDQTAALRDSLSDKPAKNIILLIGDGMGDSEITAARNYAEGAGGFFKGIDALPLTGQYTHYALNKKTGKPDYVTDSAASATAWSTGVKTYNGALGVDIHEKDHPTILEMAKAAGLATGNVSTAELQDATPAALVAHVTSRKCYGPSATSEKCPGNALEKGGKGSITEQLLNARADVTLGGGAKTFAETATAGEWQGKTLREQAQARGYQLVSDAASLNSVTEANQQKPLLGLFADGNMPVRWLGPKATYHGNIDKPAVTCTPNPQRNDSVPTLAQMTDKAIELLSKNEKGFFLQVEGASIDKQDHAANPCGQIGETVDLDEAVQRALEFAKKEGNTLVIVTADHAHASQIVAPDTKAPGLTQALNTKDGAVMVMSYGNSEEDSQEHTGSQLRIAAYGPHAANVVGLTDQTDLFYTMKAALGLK
Experimental: as §1, §2

[3] = target: alkaline phosphatase isolated from leukocytes (Homo sapiens, UniProt P05186); settings: 0.02M EDTA; cited from earlier work
alkaline phosphatase isolated from leukocytes, sequence (P05186 18-502 limits assumed): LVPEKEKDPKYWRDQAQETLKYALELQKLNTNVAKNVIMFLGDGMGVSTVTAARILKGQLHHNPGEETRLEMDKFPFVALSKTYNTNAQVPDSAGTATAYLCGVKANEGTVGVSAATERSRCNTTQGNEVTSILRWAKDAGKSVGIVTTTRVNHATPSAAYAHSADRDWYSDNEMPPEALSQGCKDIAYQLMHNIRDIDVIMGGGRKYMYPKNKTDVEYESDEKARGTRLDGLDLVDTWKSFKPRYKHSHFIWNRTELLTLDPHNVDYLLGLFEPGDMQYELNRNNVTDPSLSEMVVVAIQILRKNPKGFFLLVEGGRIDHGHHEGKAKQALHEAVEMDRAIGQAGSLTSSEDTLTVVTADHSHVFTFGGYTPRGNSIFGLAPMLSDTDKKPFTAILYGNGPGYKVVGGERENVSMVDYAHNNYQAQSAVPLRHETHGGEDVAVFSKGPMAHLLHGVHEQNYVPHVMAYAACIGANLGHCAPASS

E. coli alkaline phosphatase, trypsin-modified (tm-AP), sequence (P00634 33-471): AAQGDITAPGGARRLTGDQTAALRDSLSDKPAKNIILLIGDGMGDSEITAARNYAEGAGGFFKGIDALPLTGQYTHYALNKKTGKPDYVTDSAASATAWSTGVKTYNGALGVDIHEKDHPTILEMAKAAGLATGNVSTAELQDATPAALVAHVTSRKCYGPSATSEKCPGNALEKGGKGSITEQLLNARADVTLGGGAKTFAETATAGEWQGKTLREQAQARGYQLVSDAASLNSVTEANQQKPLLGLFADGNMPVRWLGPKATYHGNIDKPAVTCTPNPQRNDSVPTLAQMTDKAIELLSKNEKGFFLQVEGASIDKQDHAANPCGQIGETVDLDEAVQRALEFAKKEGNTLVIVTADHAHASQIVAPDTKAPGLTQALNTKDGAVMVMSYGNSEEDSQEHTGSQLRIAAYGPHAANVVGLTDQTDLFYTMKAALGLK

## O=C(O)CN(CCN(CC(=O)O)CC(=O)O)CC(=O)O [EDTA, ethylene diamine tetraacetic acid]
[1]
  time until activity is reduced to zero on exposure to EDTA: 1.5 h
[2]
  time required for inactivation on exposure to EDTA: 3.5 h
[3]
  inhibition after incubation with EDTA: 50%

Source: patent US4650760A, “Modified alkaline phosphatase” (Research Corporation, priority 1985, dated 1987)
